# Experimental data taken from PMC7843569, “Metagenomic identification, purification and characterisation of the Bifidobacterium adolescentis BgaC β-galactosidase” (Applied Microbiology and Biotechnology, 2021).
# B1: BgaC β-galactosidase (BAD_1582) (Bifidobacterium adolescentis ATCC 15703) (protein)
# chain: MADTAELAIVHATTASASWLTDPTVFAANRKPAHSSHRYVIGETREPKQSLDGEWKVRIEQARNVDVESAPFAAVDFEDGDFGAIEVPGHLQMAGYLKNKYVNIQYPWDGHEDPQAPNIPENNHVAIYRRRFALDAQLARTLENDGTVSLTFHGAATAIYVWLDGTFVGYGEDGFTPSEFDVTEALRNGNGNAADSPEAEHTLTVACYEYSSASWLEDQDFWRLHGLFRTVELAAQPHTHVETVQLEADYTAADTAGTADTAELNAALTLRNPADAMTIESTLRDGDGNVVWESTQACNGEIALNSGKMTNIAPWSAESPTLYTLTVRVVGHDGAIIETVTQKIGFRTFRIENGIMTINGKRIVFKGADRHEFDAKRGRAITREDMLSDVVFCKRHNINAIRTSHYPNQEYWYDLCDEYGLYLIDETNMETHGTWVANNVERPEDGIPGSRPEWEGACVDRINSMMRRDYNHPSVLIWSLGNESSAGEVFRAMYRHAHTIDPNRPVHYEGSVHMREFEDVTDIESRMYAHADEIERYLNDGSPAHTDGPKKPYISCEYMHAMGNSCGNMDEYTALERYPMYQGGFIWDFIDQAIETKLPDGTTRMCYGGDFGDRPSDYEFSGDGLLFADRTPSPKAQEVKQLYANVKIAVSVDEARITNDNLFVSTGDYRFVLRILADGKPVWSTTRRFDVAAGESASFEVDWPVDDYRSNAEELVLEVSQQLGNACDWAPAGYELAFGQCVVAGAKTTADAVDAAGAPADGTVTLGRWNAGVRGQGREALFSRTQGGMVSYTFGEREFVLRRPSITTFRPLTDNDRGAGHAFERAAWAVAGKYARCVDCAIANRGENAVEATYTYELAIPQRTKVTVRYVADTAGLVSLDVEYPGEKNGDLPTIPAFGIEWALPVEYANLRFYGAGPEETYADRRHAKLGVWSTTAGDDCAPYLLPQETGNHEDVRWAEITDDSGHGVRVKRGAGAKPFAMSLLPYSSTMLEEALHQDELPKPRHMFLRLLAAQMGVGGDDSWMSPVHEQYQLPADQPLSLNVQLKLF
# How the values were obtained:
# [1] = target: T1, BgaC β-galactosidase (BAD_1582) (Bifidobacterium adolescentis, UniProt A1A3T0); assay: purified enzyme; glucose-release kinetics (Km […]) and competitive inhibition of ONPG hydrolysis; format: biochemical
# [2] = target: T1, BgaC β-galactosidase (BAD_1582); assay: purified enzyme hydrolysis, specific activity, absorbance at […] nm; TLC; format: biochemical
# [3] = substrate: O=[N+]([O-])c1ccccc1O[C@@H]1O[C@H](CO)[C@H](O)[C@H](O)[C@H]1O; assay: purified protein; conditions: divalent metal ion (Mg2+ gives maximum activity) enzyme active site
molecule,measurement,setting,value
OC[C@H]1O[C@@H](O[C@H]2[C@H](O)[C@@H](O)C(O)O[C@@H]2CO)[C@H](O)[C@@H](O)[C@H]1O (stereo partly drawn) [lactose],Ki,[1],100 µM
O=[N+]([O-])c1ccc(O[C@@H]2O[C@H](CO)[C@H](O)[C@H](O)[C@H]2O)cc1 [pNPG],"purified enzyme hydrolysis, specific activity, absorbance at 420 nm; TLC",[2],112 µmol/min/mg
B1,Km,[3],2500 µM
